Data on nine molecules can be found in patent publication US20170253601A1, “Substituted Pyrrolidine Compounds” (EPIZYME, INC., priority 2014, published 2017).

Read-outs that look alike come from different tables or passages of the source.

The subject of assay [1] is esophageal, liver and breast cancer cell lines. The note with it: several esophageal, dose-dependent; cited from earlier work.
The next assay has as its target T1, SMYD2 (Homo sapiens, UniProt Q9NRG4).
T1 construct: Full length SMYD2 (NP 064582.2) was cloned; His6 (N, cleaved yes); FLAG (N); made in house; host or cells: Sf9 insect cells
As to the kind of experiment: SMYD2 Biochemical Assay (3H-SAM, biotinylated peptide substrate, Flashplate). The method, boiled down: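 Methyltransferase activity tracked as 3H transfer from 10 nM 3H-SAM to 60 nM biotinylated peptide, counted after streptavidin Flashplate capture and normalised to DMSO and 1000 uM SAH controls. Enzyme: 1.5 nM full-length Sf9-expressed SMYD2, 30 min compound pre-incubation at room temperature, in Bicine pH 7.6 buffer with 2% DMSO; reactions quenched with 600 uM unlabelled SAM; IC50 from 3- or 4-parameter fit.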

Where [2] appears, read: IC50 values are an average of n = 1 to n = 50, read-out: SMYD2 Biochem IC50 (μM)*.

T1 sequence (Q9NRG4 whole entry): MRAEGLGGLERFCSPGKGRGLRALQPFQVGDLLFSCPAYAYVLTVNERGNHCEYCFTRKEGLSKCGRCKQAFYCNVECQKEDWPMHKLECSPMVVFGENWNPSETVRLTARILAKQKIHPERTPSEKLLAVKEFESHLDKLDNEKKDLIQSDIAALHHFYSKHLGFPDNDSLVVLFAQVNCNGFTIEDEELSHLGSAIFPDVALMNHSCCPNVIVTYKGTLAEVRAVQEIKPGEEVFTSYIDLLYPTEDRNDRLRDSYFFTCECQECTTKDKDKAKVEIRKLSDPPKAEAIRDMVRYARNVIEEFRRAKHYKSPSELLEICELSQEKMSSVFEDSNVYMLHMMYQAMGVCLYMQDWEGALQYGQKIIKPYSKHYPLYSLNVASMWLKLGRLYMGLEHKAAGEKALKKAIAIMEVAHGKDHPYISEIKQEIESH

Take `Cc1cn(CCN2CCN(c3ccccc3-c3cc(C#N)cc(C(=O)NCCCN4CCCC4)c3)CC2)c2ccccc12` [LLY-507]: the “inhibition of proliferation of cancer cell lines” value in assay [1] was “inhibited the proliferation”.
`C[C@H]1CN(Cc2nccn2C)C[C@H]1NC(=O)c1cc(C2CC2)on1` (racemic) [compound 305, (±)-cis-5-cyclopropyl-N-{4-methyl-1-[(1-methyl-1H-imidazol-2-yl)methyl]pyrrolidin-3-yl}-1,2-oxazole-3-carboxamide]: the IC50 on SMYD2 (setting [2]) was found to be 41.1 µM.
On the same count and under the same terms, the figure for `COc1ccc(N2C[C@@H](C)[C@H](NC(=O)c3cc(C4CC4)on3)C2)cc1` (racemic) [compound 299, (±)-trans-5-cyclopropyl-N-[1-(4-methoxyphenyl)-4-methylpyrrolidin-3-yl]-1,2-oxazole-3-carboxamide] is greater than 50 µM.
As to `C[C@H]1CN(C2CC2)C[C@H]1NC(=O)c1cc(C2CC2)on1` (racemic) [Cpd. No. 45, (±)-cis-5-cyclopropyl-N-(1-cyclopropyl-4-methylpyrrolidin-3-yl)isoxazole-3-carboxamide], the IC50 on SMYD2 (Table 1, average of n = 1 to n = 50, read-out: SMYD2 Biochem IC50) was found to be 19.2 µM.
Turning to `CC(c1cc(C(=O)N[C@@H]2CN(C(C)C)C[C@@H]2C)no1)C(F)F` (relative stereo) [compound 344, cis-5-(1,1-difluoropropan-2-yl)-N-[4-methyl-1-(propan-2-yl)pyrrolidin-3-yl]-1,2-oxazole-3-carboxamide], the 50% inhibitory concentration (IC50) on SMYD2 (setting [2]) was 10.2 µM.
For `C[C@H]1CN(S(C)(=O)=O)C[C@H]1NC(=O)c1cc(C2CC2)on1` (racemic) [compound 66, (±)-cis-5-cyclopropyl-N-(4-methyl-1-(methyl-sulfonyl)pyrrolidin-3-yl)isoxazole-3-carboxamide], the IC50 at SMYD2 (Table 2, average of n = 1 to n = 50, read-out: SMYD2 Biochem IC50) was greater than 50 µM.
For `CC(=O)Nc1ccc(N2C[C@H](C)[C@H](NC(=O)c3cc(C4CC4)on3)C2)cc1` (racemic) [compound 278, (±)-cis-5-cyclopropyl-N-[1-(4-acetamido-phenyl)-4-methylpyrrolidin-3-yl]-1,2-oxazole-3-carboxamide], at SMYD2 (setting [2]), the 50% inhibitory concentration (IC50) is greater than 50 µM.
Consider `C[C@H]1CN(Cc2ccccn2)C[C@H]1NC(=O)c1cc(C2CC2)on1` (racemic) [compound 121, (±)-cis-5-cyclopropyl-N-[4-methyl-1-(pyridin-2-ylmethyl)pyrrolidin-3-yl]-1,2-oxazole-3-carboxamide], for which the 50% inhibitory concentration (IC50) on SMYD2 (setting [2]) was determined as 15.7 µM.
With `C[C@@H]1CN(CC(N)=O)C[C@H]1NC(=O)c1cc(C2CC2)on1` (racemic) [compound 310, (±)-trans-N-[1-(carbamoylmethyl)-4-methylpyrrolidin-3-yl]-5-cyclopropyl-1,2-oxazole-3-carboxamide], the half-maximal inhibitory concentration (IC50) on SMYD2 (setting [2]) was greater than 50 µM.
